Consider two compounds from publication PMC9501633, “Synthesis, Characterisation and Mechanism of Action of Anticancer 3-Fluoroazetidin-2-ones” (Pharmaceuticals, 2022).

SMILES strings stand for the structures.

Data set [1] deals with purified bovine brain tubulin. Also on record: method as in PMID 31954879. Conditions: 10 μM; cited from earlier work.
Data set [2] in a line: AlamarBlue cell viability assay, non-tumourigenic cells. Format: cell-based, human. Conditions: human, HEK-293T cells (non-tumourigenic), 1 μM. As to the method:
(§1) The cytotoxicity of the potent β-lactam 33 was investigated in the non-tumourigenic HEK-293T cell line (normal human embryonic kidney) at 72 h. […] For example, the cell viability of HEK cells at 1 μM was 88% in contrast to the cell viability of 36% for MCF-7 cells at 1 μM.
(§2) Cells were seeded at a density of 5 × 10^3 cells/well (MCF-7 and MDA-MB-231) and 1 × 10^4 cells/well (HEK-293T) in 96-well plates (200 μL per well). After 24 h, cells were then treated with medium alone, with vehicle (1% ethanol (v/v)) or with CA-4 or β-lactam compounds at 1 μM and 10 μM concentrations. […] Cell proliferation for MCF-7 cells was analysed with the AlamarBlue assay (Invitrogen Corp.) as previously described by us. […] Fluorescence results were obtained with a 96-well fluorimeter with excitation at 530 nm and emission at 590 nm with results recorded as percentage viability relative to vehicle control (100%). […]
(§3) Figure 4 Antiproliferative activity of 3-fluoro β-lactams on MCF-7, MDA-MB-231, Hs578T and Hs578T isogenic subclone Hs578T(i)8 breast cancer cells and non-tumourigenic HEK-293T cells. […] Cell viability was expressed as a percentage of vehicle control (ethanol 1% (v/v))-treated cells. […] Cell viability was expressed as a percentage of vehicle control (ethanol 1% (v/v))-treated cells and was measured by AlamarBlue assay (average of three independent experiments). […]
Background: Resazurin is reduced to fluorescent resorufin, in cell work by metabolically active cells.

Data set [3] concerns HEK-293T cells. The data set is described as above. Format: cell-based, human. The note with it: Homo sapiens, 72 h. As for the experimental part:
as §1, §2, §3

Data set [4] concerns survivin. The data set is described as follows: Western blot of apoptosis regulatory proteins in MCF-7 cells. Type of data set: cell-based, human. Conditions: MCF-7, 0.05, 0.1 and 0.5 μM, dose- and time-dependent. An excerpt: Survivin is a member of the inhibitor of apoptosis (IAP) protein family. It is an essential anti-apoptotic protein marker that is overexpressed in most tumour cells and is associated with a poor clinical outcome. Survivin inhibits caspase activation, which is used as an indicator of apoptosis cascades. Survivin selective inhibitor molecules have been identified as cancer therapeutics, including survivin–partner protein interaction inhibitors, survivin homodimerisation inhibitors, survivin gene transcription inhibitors and survivin mRNA inhibitors. We examined the effect of a range of concentrations of compound 33 (0.05, 0.1 and 0.5 μM) on the level of survivin expressed.
Western blot analysis was performed according to the protocols we previously described. MCF-7 cells were seeded at a density of 1 × 10^5 cells/flask in T25 flasks. After 48 h, whole cell lysates were prepared from untreated cells or cells treated with vehicle control (EtOH, 0.1% v/v) or cells treated with compound 33 (0.05 μM, 0.1 μM and 0.5 μM). […] Equal amounts of protein (as determined by a BCA assay) were resolved by SDS-PAGE (12%) followed by transfer to PVDF membranes. […] Proteins were detected using enhanced chemiluminescent Western blot detection (Clarity Western ECL substrate) (Bio-Rad) on the ChemiDoc MP System (Bio-Rad). […]

For the compound `COc1ccc(/C=C\c2cc(OC)c(OC)c(OC)c2)cc1O` [CA-4, combretastatin A-4, reference compound], in data set [1], the “reduction in the Vmax of tubulin polymerisation” value was 6.3 fold.
For the compound `COc1ccc(C2C(F)C(=O)N2c2cc(OC)c(OC)c(OC)c2)cc1F` (stereo not shown) [Compound 33, 3-Fluoro-4-(3-fluoro-4-methoxyphenyl)-1-(3,4,5-trimethoxyphenyl)azetidin-2-one], in data set [2], the viability (commonly a per cent measure of how many cells are alive, often set against a control) at 72 h, 1 µM amounted to 88%. Besides, the IC50 – broadly, the concentration that gives 50% inhibition – in data set [3] was more than 50 µM. For the same compound, the survivin expression entry in data set [4] was “downregulation”.
